Measurements as given in paper PMC11406516, “The Tuberculosis Drug Candidate SQ109 and Its Analogs Have Multistage Activity against Plasmodium falciparum” (ACS Infectious Diseases, 2024).
Converted amounts (≈) assume the structure as drawn. Read-outs that look alike come from different tables or passages of the source. Marks after values point to notes of the source that are not given here.

How the values were obtained:
[1] = tested on: immature-stage gametocytes (IGc, stage II/III); experiment: Immature-stage gametocyte activity; type: cell-based; settings: Plasmodium falciparum, 48 h drug pressure
Description: Figure 1 SQ109 is a gametocyte-targeting compound. (A) IC50 for parent compound SQ109/1 on asexual parasites (ABS), immature-stage gametocytes (IGc, stage II/III), or late-stage gametocytes (LGc, stage IV/V), under 48 h drug pressure. IC50 ABS: 1.58 ± 0.2 μM; IC50 IGc: 0.38 ± 0.10 μM; IC50 LGc: 0.14 ± 0.03 μM; ** P < 0.01 indicates IGc and LGc vs ABS. (B) Chemical structure and summary of the designed structure–activity relationships (SAR-1, SAR-2 and SAR-3) around SQ109/1. Data are from >2 independent biological repeats, mean ± SE indicated, unpaired Student’s t-test applied.

[2] = tested on: PfNF54 LGc (stage IV/V gametocytes); experiment: PrestoBlue late-stage gametocyte viability assay; type: cell-based, Plasmodium falciparum; settings: for IC50: Plasmodium falciparum, stage IV/V gametocytes, 48 h drug pressure, read-out: PfNF54 LGc IC50
Description: Gametocytogenesis was induced on highly synchronized (>95%) asexual ring-stage parasites from PfNF54 at 0.5% parasitemia and 6% hematocrit and thereafter maintained in glucose-deprived media as previously described.[29],[15] After 3 days, the hematocrit was decreased to 4%. Parasites were maintained in complete culture media supplemented with 50 mM N-acetyl-glucosamine 5–10 days post induction to inhibit proliferation of residual asexual blood stages. Gametocyte progression and morphology was also monitored microscopically using Giemsa-stained thin smears.
activity against the sexual stages of P. falciparum was evaluated using the PrestoBlue fluorescence assay as previously described.[4] Activity was measured on PfNF54 stage IV/V gametocytes (2% gametocytemia, 5% hematocrit) previously seeded with compounds (in non-lethal DMSO) for 48 h drug pressure, after which PrestoBlue reagent was added and incubated for 2 h. Fluorescence was detected in the supernatant at 612 nm. Dihydroartemisinin (DHA) was used as a positive drug control.

oocyst formation [3] = settings: cited from earlier work
[4] = tested on: African field isolate SB05; experiment: Ex vivo activity on clinical isolate SB05; type: cell-based, Plasmodium falciparum; settings: for IC50: Plasmodium falciparum, read-out: IC50 SB05
Excerpt: (§1) Since SB03/05 are both multiclonal,[27] this warrants further investigation into the activity of this series toward clinical gametocytes.
(§2) (A) Dose–response analysis of SQ109 on clinical isolates SB03 and SB05 in comparison to lab-adapted NF54 P. falciparum parasites. Data are from at least 2 independent biological repeats, mean ± SE indicated, * P < 0.05 is indicated. (B) IC50 for SQ109 analogs 13 and 19 against a contemporary African field isolate SB05. […] TEXT PRINTED IN THE PICTURE: (A) SQ109/1: IC50 (μM), NF54: 1.58 ± 0.20; IC50 (μM), SB03: 0.63 ± 0.01; IC50 (μM), SB05: 0.90 DOUBTS OF THE COPYIST ABOUT THIS PICTURE: Panel A: the three IC50 values are matched to NF54, SB03 and SB05 only by line style (black dashed, grey solid, grey dashed), not by a printed label beside the numbers.

PfDd2 parasites = experiment: Asexual blood stage activity, chloroquine-resistant Dd2; type: cell-based; settings: Plasmodium falciparum, DD2, read-out: Pf ABS IC50 (Dd2)
Excerpt: This strain is highly resistant to chloroquine and other antimalarials and is associated with increased export of e.g., chloroquine from the digestive vacuole.[23] This phenotype was also replicated in PfDd2 parasites, also resistant to chloroquine (among other antimalarials), with 4 and 5 losing activity but 1 similarly active (Table 1). These aromatic compounds may therefore be subject to resistance mechanisms similar to those found with chloroquine.

HepG2 cells [5] = experiment: HepG2 cytotoxicity, LDH release assay; settings: Homo sapiens, HepG2, 24 h, read-out: HepG2 EC50
Description: (§3) Furthermore, compounds were evaluated against late (stage IV/V) gametocytes from PfNF54 (PfNF54 LGc), with viability detected with PrestoBlue,[15] and orthogonally evaluated for toxicity against a human hepatocellular carcinoma line, HepG2.[16]
(§4) Human hepatocellular liver carcinoma cells (HepG2) were cultivated in vitro in Dulbecco’s Modified Eagle’s Medium (DMEM) supplemented with 10% (v/v) heat inactivated fetal bovine serum and 1% (v/v) penicillin/streptomycin.[14] Cells were detached with trypsin treatment at 80% confluency and were seeded in 96-well plates to adhere for 24 h under 5% CO2, humid (95%) conditions. Cells were subsequently exposed to drug pressure for 24 h and cytotoxicity was then determined using the lactate dehydrogenase (LDH) release assay through the colorimetric detection at 450 nm, as previously outlined.[4],[16]

female gametes [6] = tested on: female gametes; parameters: method as in Reader et al.[4]; settings: ref Reader et al.[4]; cited from earlier work
in vitro = in vitro ADME; settings: microsomes
Description: The microsomal stability assay used a single-point assay design (Di et al., 2004). Briefly, the compounds were incubated at 1 μM in human, rat, and mouse liver microsomes (0.4 mg/mL) for 30 min at 37 °C. Reactions were quenched by adding ice-cold acetonitrile containing internal standard (carbamazepine, 0.0236 μg/mL). The samples were then centrifuged, and the samples were analyzed by liquid chromatography with tandem mass spectrometry (LC-MS/MS) (Agilent Rapid Resolution HPLC, AB SCIEX 4500 MS) for the disappearance of the parent compound. Half-life, clearance and hepatic […] ratios were determined using standard equations.

PfNF54 ABS [7] = tested on: PfNF54 ABS; parameters: method as in Stampolaki et al.[5]; settings: drug-sensitive NF54; ref Stampolaki et al.[5]; read-out: Pf ABS IC50 NF54; cited from earlier work
clinical isolate SB03 = experiment: Ex vivo activity on clinical isolate SB03; type: cell-based; settings: Plasmodium falciparum, read-out: IC50 SB03
Excerpt: as §1, §2

male gametes (PfNF54) [8] = tested on: male gametes (PfNF54); parameters: method as in Reader et al.[4]; settings: ref Reader et al.[4]; cited from earlier work
PfK1 = experiment: SYBR Green I proliferation assay, asexual blood stages, multidrug-resistant K1; settings: for IC50: Plasmodium falciparum, K1, read-out: Pf ABS IC50 K1; for fold higher IC50 against PfK1: PfK1 vs NF54
Description: (§5) P. falciparum asexual parasites were cultured from drug-sensitive NF54 (PfNF54) and multidrug resistant strains PfK1. Parasites were maintained in human erythrocytes (O+, suspended at 5% hematocrit) in RPMI-1640 culture medium (23.81 mM sodium bicarbonate, 0.024 mg/mL gentamycin, 25 mM HEPES pH 7.5, 0.2% D-glucose, 0.2 mM hypoxanthine and Albumax II) under hypoxic conditions (5% CO2, 5% O2 and 90% N2) with moderate shaking (60 rpm) at 37 °C. Cultures were synchronized to >95% in the ring stage with 5% (w/v) D-sorbitol treatment.[28]
(§6) Activity against the asexual stage of P. falciparum was evaluated using the SYBR Green I-based fluorescence assay as previously described.[4],[16] Cellular proliferation was measured on synchronized in vitro PfNF54 ring-stage parasites (1% parasitemia, 2% hematocrit), following drug pressure for 96 h. Chloroquine was used as the positive drug control for complete inhibition of parasite proliferation.

female gametes [9] = experiment: Female gamete inhibition assay; type: cell-based, Plasmodium falciparum; parameters: concentration or dose not given beside the values
Description: Similarly, female gametes were activated as described previously.[31] Monoclonal anti-Pfs antibody conjugated to FITC was used to detect female gametes. Image acquisition was performed using a Zeiss Axio Lab.A1 epifluorescence microscope with a 100/1.4 numerical aperture (NA) oil immersion. Thirty images were captured per sample and analyzed manually.

physchem = type: physicochemical; settings: 37 °C, pH 6.5, aqueous buffer, thermodynamic from solid
Description: The stock solutions (10^–2 M) of the assayed compounds were diluted to decreased molarity, from 300 to 0.1 μM, in 384 well transparent plate (Greiner 781801) with 1% DMSO:99% PBS buffer. Then, they were incubated at 37 °C and the light scattering was measured after 2 h in a NEPHELOstar Plus (BMG LABTECH). The results were adjusted to a segmented regression to obtain the maximum concentration in which compounds are soluble.
The solubility of each product was evaluated using an HPLC Agilent 1100 with a DAD detector. The samples were injected in an Agilent Poroshell 120 EC-C18, 2.7 μm, 50 mm × 4.6 mm column at 40 °C and 0.6 mL/min flow. The mobile phase was a mixture of A = water with 0.05% formic acid and B = acetonitrile with 0.05% formic acid. The procedure followed was from 95% A–5% B to 100% B in 3 min, 100% B in 3 min, from 100% B to 95% A–5% B in 1 min, 95% A–5% B in 3 min; the injection volume was set at 75 μL. […] The samples remained at these conditions between 12–24 h. Then, the samples were filtered through a 0.45 μm PVDF filter and either directly analyzed or diluted before analyzing. The obtained area under the curve was compared with the one from the standard solution.

oocyst formation [10] = experiment: Standard membrane feeding assay (SMFA), oocyst formation in Anopheles coluzzii; type: in vivo; settings: Plasmodium falciparum, 48 h drug treatment at 2 μM, single biological repeat
Description: Transmission-blocking activity was confirmed in the standard membrane feeding assay (SMFA), by determining transmission-reducing activity (TRA; reduction in oocyst counts) and transmission-blocking activity (TBA, reduction in oocyst prevalence), 8–10 days after feeding female mosquitoes on gametocyte-infected blood, treated with selected compounds (at 2 μM).
SMFA was performed using glass feeders as is outlined.[4],[16] Once again, mature stage V gametocytes (>95%) were treated with 2 μM of each compound for 48 h prior to feeding. Anopheles coluzzii females were allowed to feed on gametocyte cultures (1.5–2.5% gametocytemia, 50% hematocrit in A+ male serum with fresh erythrocytes) in the dark for 40 min. All unfed or partially fed mosquitoes were removed, and remaining females housed for 8–10 days. Mosquitoes were dissected to remove midguts, and oocysts counted under bright field illumination at ×20–×40 magnification. The percentage of block in transmission (transmission-blocking activity; TBA) and the percentage of reduction in the number of oocysts (transmission-reducing activity; TRA) were calculated after normalizing to the control untreated sample.

HepG2 cells [11] = tested on: HepG2 cells; parameters: method as in Stampolaki et al.[5]; settings: compound at 20 μM; ref Stampolaki et al.[5]; cited from earlier work
male gametes (PfNF54) [12] = experiment: Male gamete exflagellation inhibition assay (EIA); type: cell-based; settings: Plasmodium falciparum; 2 μM, 48 h; read-out: male gamete inhibition %
Description: The EIA was performed using video microscopy by capturing the movement of exflagellation centers over time as previously described.[4],[30] Mature PfNF54 stage V gametocytes (>95%;) were treated with 2 μM of drug for 48 h before the activation of exflagellation, without removing drug pressure. Movement was semi-automatically quantified from 15 videos of 8–10 s each between 15 and 22.5 min after incubation. Each video was analyzed using ICY-bio image analysis software.

PfNF54 ABS [13] = experiment: SYBR Green I proliferation assay, asexual blood stages, drug-sensitive NF54; settings: for IC50: Plasmodium falciparum, NF54, 96 h, read-out: Pf ABS IC50 NF54
Description: as §5, §6

HepG2 cells [14] = tested on: HepG2 cells
Description: as §3, §4

[15] = 48 h drug treatment at 2 μM, ref Reader et al.[4]
[16] = read-out: oocyst formation (% inhibition) TBA
[17] = read-out: oocyst formation (% inhibition) TRA

| SMILES | IC50 [2] [nM] | IC50 [4] [nM] | IC50 (PfDd2 parasites) [µM] | EC50 (HepG2 cells [5]) [µM] | microsomal CLint at 1 µM (in vitro; human) [µL/min/mg] | microsomal CLint at 1 µM (in vitro; mouse) [µL/min/mg] | microsomal CLint at 1 µM (in vitro; rat) [µL/min/mg] | IC50 (PfNF54 ABS [7]) [nM] | IC50 (PfK1) [µM] | female gamete inhibition % (female gametes [9]) [%] | solubility (physchem) [µM] | inhibition at 2 µM (oocyst formation [10]; [16]) [%] | HepG2 % viability (HepG2 cells [11]) [%^c] | inhibition at 2 µM (male gametes (PfNF54) [12]) [%] | fold higher IC50 against PfK1 (PfK1) [×] | inhibition at 2 µM (oocyst formation [10]; [17]) [%] | IC50 (PfNF54 ABS [13]) [nM] | other results |
| --- | --- | --- | --- | --- | --- | --- | --- | --- | --- | --- | --- | --- | --- | --- | --- | --- | --- | --- |
| CC(C)=CCC/C(C)=C/CNCCNC1C2CC3CC(C2)CC1C3 (stereo not drawn) [Compound 1, N-geranyl-N′-(2-adamantyl)ethane-1,2-diamine, reference compound] | 140 ± 30 | 900 | 1.44 | 9.21 ± 1.99 | 442 | 410 | 385 | 1580 ± 200 | 3.48 ± 0.24 | – | – | – | – | – | – | – | – | IC50 [1]: 380 nM; selectivity toward LGc compared to ABS ([2]; LGc IC50 vs ABS IC50): > 10 fold; oocyst formation (% inhibition) TBA (oocyst formation [3]; [15]): 36.0 ± 10.6 ^c %; oocyst formation (% inhibition) TRA (oocyst formation [3]; [15]): 76.0 ± 4.75 ^c %; transmission-reducing activity (oocyst formation [3]): 80%; shift in IC50, clinical isolates vs NF54 ([4]; contemporary African clinical isolates ex vivo): no significant shift; female gamete inhibition % (female gametes [6]): 51.74 ± 5.40 ^c %; IC50 (clinical isolate SB03): 630 ± 10 nM; male gamete inhibition % (male gametes (PfNF54) [8]): 72.98 ± 5.97 ^c % |
| CC(C)=CCC/C(C)=C/CNCCNC1(Cc2ccccc2)C2CC3CC(C2)CC1C3 (stereo not drawn) [Compound 4] | 160 ± 20 | – | 8.11 | – | – | – | – | 320 ± 30 | > 5 | 74.48 ± 2.26 | 13.9 (≈ 5.85 µg/mL) | 26 | 100 | 43.9 ± 10.6 | 16 | – | – | – |
| CC(C)=CCC/C(C)=C/CNCCNC1(c2ccccc2)C2CC3CC(C2)CC1C3 (stereo not drawn) [Compound 5] | 210 ± 20 | – | 5.66 | – | 400 | 343 | 514 | 420 ± 90 | 5.99 ± 0.63 | 61.03 ± 14.35 | 30 (≈ 12.2 µg/mL) | 63 | 100 | 48 ± 24.8 | 14 | 38 | – | – |
| CC(C)=CCC/C(C)=C/CNCCCNC1C2CC3CC(C2)CC1C3 (stereo not drawn) [Compound 13] | 120 ± 30 | 490 ± 90 | – | 11.8 ± 0.83 | – | – | – | – | 1.05 ± 0.09 | 87.02 ± 3.68 | – | 64 | – | 90.9 ± 9.09 | – | 70 | 980 ± 80 | fold improvement in ABS activity compared to 1 (PfNF54 ABS [13]; PfNF54 ABS): 1.6 fold; fold improvement in gametocyte activity compared to 1 ([2]; PfNF54 LGc): 1.2 fold |
| CC(C)CCCC(C)CCNCCNC1C2CC3CC(C2)CC1C3 (stereo not drawn) [Compound 19] | 300 ± 30 | 950 ± 310 | – | 3.5 ± 0.09 | – | – | – | – | 0.11 ± 0.01 | 86.30 ± 2.58 | – | 36 | – | 95.5 ± 4.55 | – | 47 | 200 | cytotoxicity to HepG2 cells (in words) (HepG2 cells [14]): moderately cytotoxic |
